Data set [1] deals with HT-29 colon cancer xenograft. The format is in vivo. On the procedure:
(§1) Female Balb/c nude mice at 7-8 weeks of age (Body weights between 17-18g) were purchased from Hunan SJA Laboratory Animal Co., Ltd. HT-29 cells were cultured in DMEM culture medium containing 10% fetal bovine serum and LoVo cells were cultured in RPMI 1640 culture medium containing 10% fetal bovine serum. The cells were harvested and washed with serum free culture medium. Finally, the cells were suspended at a cell density of […] in serum free culture medium for implantation. 5 million cells per animal suspended in 0.1 ml serum free culture medium and 1.1 matrigel were injected into the right flank of the animals after a one, week acclimation period. When average tumor volume reached acceptable tumor size (100-200 mm^3) and shape, the animals were randomly assigned into treatment groups.
HT-29 colon cancer cells were implanted to establish the xenograft model in Balb/c nude mice. Compound 3 and LY2606368 were dissolved in 30% SEB-β-CD (Zhiyuan Bio-technology) with 1 molar equivalents of HCl. GDC-575 was suspended in 0.5% methyl cellulose/0.1% Tween 80 in water. […]. The animals well tolerated each treatment in the HT-29 colon cancer in nude mice model.

Another data set deals with HT-29. Nature of the data set: Cancer cell growth inhibition assay (CellTiter-Glo), HT-29. The format is cell-based, Human. Conditions: 72 hours, cellular ATP content, read-out: HT-29 anti cell proliferation activity (grade). The procedure:
(§2) Human cancer cell lines were purchased from American Type Culture Collection (Manassas, Va.). The trypsinized cells were diluted to required volume at densities of 44,000 cells/ml. 90 ul cell slurry was dispensed per well in 96-well flat-bottomed plates with the recommended culture medium. The cells were incubated for 24 hours at 37° C. in 5% CO2 under humidified condition. The cells were then incubated with compounds at various concentrations for 72 hours in culture medium supplemented with 0.5% (v/v) FBS. Growth inhibition was assessed by assay of cellular ATP content using CellTiter-Glo reagent to each well. Luminesce was read on Envision. The inhibition rate (%)=(Max signal compound signal)/(Max signal Min signal)×100.
(In general: In ATP-based viability assays light output follows the ATP content of the culture.)

A further data set deals with MDA-MB-231. Nature of the data set: Cancer cell growth inhibition assay (CellTiter-Glo), MDA-MB-231. The format is cell-based, Human. The settings on record: 72 hours, cellular ATP content, read-out: MDA-MB-231 anti cell proliferation activity (grade). The procedure:
as §2

The next data set deals with T1, Chk2 (Homo sapiens, UniProt O96017).
T1 construct: purchased Carna 02-162
T1 sequence (O96017 whole entry): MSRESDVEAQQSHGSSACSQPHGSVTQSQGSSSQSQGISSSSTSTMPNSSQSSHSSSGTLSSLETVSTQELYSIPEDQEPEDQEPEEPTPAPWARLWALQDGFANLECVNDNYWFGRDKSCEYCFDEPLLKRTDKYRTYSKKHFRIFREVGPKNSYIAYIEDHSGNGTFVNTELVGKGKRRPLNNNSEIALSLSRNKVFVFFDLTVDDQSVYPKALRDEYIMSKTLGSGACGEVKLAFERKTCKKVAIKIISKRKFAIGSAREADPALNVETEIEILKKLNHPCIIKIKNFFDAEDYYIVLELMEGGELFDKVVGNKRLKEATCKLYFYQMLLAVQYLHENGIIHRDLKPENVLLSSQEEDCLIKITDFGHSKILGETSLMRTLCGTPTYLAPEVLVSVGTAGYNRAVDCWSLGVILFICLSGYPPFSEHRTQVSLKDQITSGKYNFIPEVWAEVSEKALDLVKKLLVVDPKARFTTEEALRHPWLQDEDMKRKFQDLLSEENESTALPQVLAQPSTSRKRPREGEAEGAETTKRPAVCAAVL
Nature of the data set: biochemical. Conditions: ADP-Glo; read-out: Chk2 in vitro enzyme activity (grade).

Another data set concerns the target T2, Chk1 (Homo sapiens, UniProt O14757).
T2 construct: purchased BPS 40039
T2 sequence (O14757 1-476): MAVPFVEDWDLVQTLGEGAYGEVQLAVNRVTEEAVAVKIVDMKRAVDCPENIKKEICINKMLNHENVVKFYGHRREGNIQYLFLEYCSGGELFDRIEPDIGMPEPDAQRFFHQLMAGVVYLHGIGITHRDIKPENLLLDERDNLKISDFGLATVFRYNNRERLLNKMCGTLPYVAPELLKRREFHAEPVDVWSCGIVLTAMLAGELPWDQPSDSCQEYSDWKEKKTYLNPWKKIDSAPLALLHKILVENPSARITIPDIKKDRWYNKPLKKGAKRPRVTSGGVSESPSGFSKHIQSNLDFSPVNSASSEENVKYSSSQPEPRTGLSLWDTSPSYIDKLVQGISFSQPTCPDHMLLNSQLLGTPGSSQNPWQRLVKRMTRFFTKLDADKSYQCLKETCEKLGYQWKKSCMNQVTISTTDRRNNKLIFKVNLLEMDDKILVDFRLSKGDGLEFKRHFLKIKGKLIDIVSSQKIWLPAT
Nature of the data set: biochemical. The settings on record: ADP-Glo; read-out: Chk1 in vitro enzyme activity (grade).

Data set [2] deals with ChK1 phosphorylation (pChK1 S296) in HT-29 colon cancer cells. Nature of the data set: Western blot analysis of ChK1 phosphorylation in HT-29 cells with SN-38. It is filed as cell-based, Human. The settings on record: HT-29 cells pre-incubated with Chk1 inhibitor 0.5 hours, then SN-38 (200 nM) 16 hours.
The next data set relates to HT-29 tumor xenograft. Nature of the data set: HT-29 xenograft model, alone or in combination with CPT-11. It is filed as in vivo, Balb/c nude mice. Conditions: for % T/C value: 15 mg/kg, IV. The procedure: as §1
In HT-29 tumor xenograft model, the animals were treated with a single compound, a ChK1 inhibitor or CPT-11, or a combination with CPT11. […] The animals well tolerated each treatment in the HT-29 colon cancer in nude mice model.

A short description of data set [3]: Pharmacokinetics study in rats, intravenous. It is filed as in vivo, SD rats. Conditions: rat. The procedure:
Compounds were formulated in 30% SEB-β-CD (Zhiyuan Bio-technology) with 1 molar equivalents of HCl (pH adjusted to 3-5). Male SD rats (280-350 g) were purchased from Medical Laboratory Animal Center of Guangdong. Three rats were used for each PK study. […] At various time points after compound administration, approximately 0.2˜0.3 mL of blood was collected by cutting the end of tail into tubes containing K2-EDTA. The plasma was separated via centrifugation and stored at −80° C. A PE Sciex API-3000 LC-MS/MS system (Applied Biosystems, Inc.) was used to analyze compound concentrations in plasma.
PK studies of ChK1 inhibitors were conducted in rats after intravenous administration at 10 mg/kg. […]. […]

Data set [4] relates to LoVo colon cancer xenograft. Nature of the data set: LoVo colon xenograft model. It is filed as in vivo, Balb/c nude mice. The settings on record: IV, twice a week. On the procedure: as §1
Lovo colon cancer cells were implanted to establish the xenograft model in Balb/c nude mice. Compound 3 and LY2606368 were dissolved in 30% SEB-β-CD (Zhiyuan Bio-technology) with 1 molar equivalents of HCl. […]

Data set [5] can be described thus: Human liver S9 metabolic stability. The settings on record: human liver S9, 1 μM. It is filed as in vitro ADME. On the procedure: Compounds (1 μM) were incubated with human liver S9 (from BD Gentest) at final liver microsomal protein concentration of 0.5 mg/mL for 0, 5, 15, 30, 45 min at 37° C. The remaining compounds in the reaction were measured by LC-MS/MS. The half-life (T½) 0.693/K (K is the rate constant from a plot of ln [concentration] vs. incubation time).

Molecules are shown by their SMILES. Read-outs that look alike come from different tables or passages of the source.

`N[C@@H]1CCCN(c2c(Br)cnc3[nH]cc(NC(=O)C4CC4)c23)C1` [GDC-0575, reference compound]: in [1] (25 mg/kg, po, 3 times/week), the T/C value was 50%. Also, the “Tumor volume (X ± SD)” value in [1] (25 mg/kg, po, 3 times/week) was found to be 515 ± 158 mm^3. The “Tumor weight (X ± SD)” value in data set [1] (25 mg/kg, po, 3 times/week) was found to be 349 ± 94 mg. The IC50 in the data set with HT-29 lay within 0.1 to 0.5 µM; in the data set on MDA-MB-231 it was 0.1 to 0.5 µM; at Chk2, 0.05 to 0.1 µM; on Chk1 it was 0.001 to 0.01 µM. Further, the “inhibition of Chk1 phosphorylation (FIG. 1)” value in [2] is “less potent than these compounds”.

In general, MRT refers to a mean duration of stay, worked out from the concentration-time curve. On to `COc1cccc(OCCCN)c1-c1cc(Nc2cnc(C#N)cn2)n[nH]1` [LY-2606368, reference compound], for which the T/C value in data set [1] (15 mg/kg, iv, 2 times/week) was 61%; in data set [4] (15 mg/kg), −57%. Moreover, the “Tumor volume (X ± SD)” value in data set [1] (15 mg/kg, iv, 2 times/week) is 615 ± 10 mm^3. For the same compound, in data set [1] (15 mg/kg, iv, 2 times/week), the “Tumor weight (X ± SD)” value came to 390 ± 24 mg. Further, the “% T/C value” stood at 0% in the data set with HT-29 tumor xenograft (twice a week plus CPT-11 (50 mg/kg, IV, once per week)) and 61% with HT-29 tumor xenograft (alone, twice a week). In addition, in the data set on HT-29 tumor xenograft (combination with CPT11), the “effect on anti-tumor growth activity of CPT11” value is “enhanced anti-tumor growth activity of CPT11”. The AUC(0-inf) in [3] (male, SD, plasma, IV, 5 mg/kg, read-out: AUC0-inf) is 0.637 µg·h/mL. Besides, in data set [3] (male, SD, plasma, IV, 5 mg/kg, read-out: AUC0-t), the AUC(0-t) was found to be 0.631 µg·h/mL. The clearance in [3] (male, SD, plasma, IV, 5 mg/kg, read-out: CL (converted)) was 7.9 L/h/kg. Also, the MRT in data set [3] (male, SD, plasma, IV, 5 mg/kg, read-out: MRT) was found to be 1.2 h. Moreover, the half-life in [3] (male, SD, plasma, IV, 5 mg/kg, read-out: t½ (converted)) is 1.3 h. Besides, the Vd was found to be 14.7 L/kg in data set [3] (male, SD, plasma, iv, 5 mg/kg, IV, 5 mg/kg, read-out: Vd) and 9.7 L/kg in data set [3] (male, SD, plasma, iv, 5 mg/kg, IV, 5 mg/kg, read-out: Vss). In addition, the tolerability in rats entry in [3] (in vivo, iv, 10 mg/kg) is “did not tolerated”. The IC50 in the data set with HT-29 (Homo sapiens, HT-29) lay within 0.01 to 0.05 µM; with MDA-MB-231 (Homo sapiens, MDA-MB-231), 0.01 to 0.05 µM. Moreover, the tumor growth inhibition entry in data set [4] (LY2606368 15 mg/kg, Compound 3 10, 20, 40 mg/kg) is “significant tumor growth inhibition in a dose-dependent manner”. This compound also displayed a half-life at 1 μM in data set [5] of 1.47 h.

(Values after US11116767B2, “3,5-disubstituted pyrazoles useful as checkpoint kinase 1 (Chk1) inhibitors, and their preparations and applications” (PHARMAENGINE, INC., priority 2016, dated 2021).)
